One data set has as its system rat mitochondria. As to the kind of experiment: Restoration of NADH oxidation, rat mitochondria. The data set is classed as biochemical. Conditions: KCN-inhibited rat mitochondria.
Data set [1] is described as follows: Solubility in buffered water as a function of pH (centrifugation, spectroscopy). In kind it is physicochemical.
The conditions of data set [2]: cited from earlier work.
Data set [3] has as its system Staphylococcus aureus MRSA. As to the kind of experiment: Antimicrobial activity (MIC). In kind it is cell-based.
For another data set, the system named is Enterococcus faecalis. Kind of data set: Antimicrobial activity (MIC). In kind it is cell-based.
Another data set relates to M. smegmatis mc2 155. As to the kind of experiment: M. smegmatis growth inhibition (colony counts on 7H9 agar). In kind it is cell-based. Conditions: for effect of antioxidants (α-tocopherol, 4-hydroxy-TEMPO, N-acetylcysteine) on growth inhibition: 0.5 μg/ml CFZ or 10 μg/ml INH.
The subject of another data set is Bacillus thuringiensis. As to the kind of experiment: Antimicrobial activity (MIC). The data set is classed as cell-based.
The subject of a further data set is S. aureus membranes. Kind of data set: Restoration of NADH oxidation and ROS production, S. aureus membranes. In kind it is biochemical, Staphylococcus aureus.
For the next data set, the system named is Enterococcus faecium. Kind of data set: Antimicrobial activity (MIC). In kind it is cell-based.
A short description of data set [4]: Solubility and cationic/uncharged species in detergents (Triton X-100, Na-lauroyl sarcosine).
For data set [5], the system named is M. smegmatis membranes. Kind of data set: ROS production by M. smegmatis log-phase membranes (Amplex Red/HRP/superoxide dismutase). In kind it is biochemical.
For data set [6], the system named is P. denitrificans membranes. Kind of data set: Restoration of NADH oxidation and ROS production, P. denitrificans membranes. In kind it is biochemical, Paracoccus denitrificans.
Another data set has as its system P. aeruginosa membranes. Kind of data set: Restoration of NADH oxidation and ROS production, P. aeruginosa membranes. The data set is classed as biochemical, Pseudomonas aeruginosa.
The test system of another data set is E. coli membranes. Kind of data set: Restoration of NADH oxidation and ROS production, E. coli membranes. In kind it is biochemical.
Data set [7] concerns M. smegmatis membranes. In kind it is biochemical.
Data set [8] addresses recombinant M. tuberculosis NDH-2 (Mycobacterium tuberculosis, UniProt P95160). In kind it is biochemical.
In data set [9] the test system is submitochondrial membranes from S. cerevisiae. As to the kind of experiment: Restoration of NADH oxidation and ROS production, S. cerevisiae submitochondrial membranes. The data set is classed as biochemical.
Data set [10] deals with M. smegmatis membranes. As to the kind of experiment: Reduction and reoxidation (redox cycling) with M. smegmatis membranes and NADH. In kind it is biochemical.
In data set [11] the test system is E. faecalis membranes (NDH-2). As to the kind of experiment: E. faecalis membranes: NADH-Q0 reductase activity and ROS production. The data set is classed as biochemical.

Converted amounts (≈) assume the structure as drawn. “And” between values parts separate entries of the source, which are not always exact repeats. Equal entries are not always repeated. “Also recorded” adds a separate entry of the source.

recombinant M. tuberculosis NDH-2, sequence (P95160 whole entry, looked up): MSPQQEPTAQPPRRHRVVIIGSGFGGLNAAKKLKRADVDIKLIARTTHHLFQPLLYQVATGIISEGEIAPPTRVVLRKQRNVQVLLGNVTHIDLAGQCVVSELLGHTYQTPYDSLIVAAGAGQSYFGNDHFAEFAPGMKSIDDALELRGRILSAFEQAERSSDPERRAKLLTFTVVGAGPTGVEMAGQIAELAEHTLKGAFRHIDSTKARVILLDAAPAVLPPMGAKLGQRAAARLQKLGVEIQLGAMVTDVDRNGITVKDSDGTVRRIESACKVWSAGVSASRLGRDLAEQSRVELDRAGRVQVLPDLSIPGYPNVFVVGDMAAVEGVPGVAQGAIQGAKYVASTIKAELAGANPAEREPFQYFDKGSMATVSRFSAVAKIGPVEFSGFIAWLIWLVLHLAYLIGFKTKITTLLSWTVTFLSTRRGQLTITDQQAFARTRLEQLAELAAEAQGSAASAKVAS

For orientation: solubility means the concentration that dissolves in the medium under given conditions. Read a high solubility as a readily soluble substance. What is called MIC is the lowest concentration that inhibits growth of the organism. In general, pKa refers to the negative logarithm of the acid dissociation constant. Turning to `CC(C)N=c1cc2n(-c3ccc(Cl)cc3)c3ccccc3nc-2cc1Nc1ccc(Cl)cc1` [CFZ, 3-(4-chloroanilino)-10-(4-chlorophenyl)-2,10-dihydro-2-(isopropylimino)-phenazine], the “restoration of NADH oxidation” value is “little, if any, restoration of NADH oxidation” in the data set on rat mitochondria; “significant restoration of NADH oxidation” in the data set with S. aureus membranes (KCN-inhibited S. aureus membranes); “did not exhibit significant CFZ-mediated NADH oxidation or ROS production; also recorded: little, if any, restoration of NADH oxidation” in data set [6] (KCN-inhibited P. denitrificans membranes); “did not exhibit significant CFZ-mediated NADH oxidation or ROS production; also recorded: little, if any, restoration of NADH oxidation” in the data set with P. aeruginosa membranes (KCN-inhibited P. aeruginosa membranes); “did not exhibit significant CFZ-mediated NADH oxidation or ROS production; also recorded: no restoration of NADH oxidation; also recorded: little, if any, restoration of NADH oxidation” in the data set on E. coli membranes (KCN-inhibited E. coli membranes); “restored a significant level of NADH oxidation” in the data set on M. smegmatis membranes [7]. For the same compound, the “restoration of NADH oxidation” value in data set [9] (KCN-inhibited S. cerevisiae submitochondrial membranes) is “significant restoration of NADH oxidation”. Also, in data set [1] (50 mM MOPS/Na+ pH 6.5, 2.0 mM MgCl2, 1.18 μg/ml, 40 min), the “fraction of CFZ remaining in solution” value is given as around 70%. Besides, the entries for the “soluble compound in water” value in data set [1] (above pH 7.5) and in data set [1] (pH 6.5) were “not detectable” and “barely detectable”, respectively. For the same compound, the solubility in data set [1] (buffered water (0.1 M buffer), 23 °C, pH 7, aqueous buffer, kinetic from dmso stock, neutral pH, 50 μM added, overnight, centrifuged) is below 2 µM; in data set [4] (pH 3.5, aqueous with cosolvent or surfactant or cyclodextrin), at least 50 µM; in data set [4] (pH 5, aqueous with cosolvent or surfactant or cyclodextrin) it was at least 50 µM. For the same compound, in [1] (pH 3.5), the “solubility in water” value is recorded as “virtually all the drug remained in the supernatant”. For the same compound, the “fraction of CFZ remaining soluble” value in data set [1] (reaction buffer pH 6.5, 1.2 μg/ml, 40-min incubation) was “About two-thirds”. Moreover, in data set [2] (Kovacic et al. 1989), the “redox potential Em, cationic species” value is −180 mV. Further, in [2] (Kovacic et al. 1989), the “redox potential Em, uncharged species” value is −950 mV. Further, in data set [2] (unclear origin), the “pKa (commonly quoted)” value is recorded as 8.5. In addition, the minimum inhibitory concentration (MIC) in [3] turned out to be 2.5 µM (≈ 1.18 µg/mL); in the data set on Enterococcus faecalis, 10 µM (≈ 4.73 µg/mL); in the data set on Bacillus thuringiensis it was 5 µM (≈ 2.37 µg/mL); against Enterococcus faecium, 10 µM (≈ 4.73 µg/mL). Also, the “effect of antioxidants (α-tocopherol, 4-hydroxy-TEMPO, N-acetylcysteine) on growth inhibition” value in the data set with M. smegmatis mc2 155 is recorded as “nullified the growth inhibitory activity; also recorded: prevented”. In the data set with M. smegmatis mc2 155 (0.5 μg/ml CFZ or more, ≧4 days, control 670±100 colonies), the “colony formation of M. smegmatis on agar” value is listed as “undetectable; also recorded: Virtually no colonies”. For the same compound, the “ROS production” value in the data set with S. aureus membranes (S. aureus membranes) is “able to oxidize NADH and generate ROS”; in data set [6] (P. denitrificans membranes) it was “did not exhibit significant CFZ-mediated NADH oxidation or ROS production”; with P. aeruginosa membranes (P. aeruginosa membranes) it was “did not exhibit significant CFZ-mediated NADH oxidation or ROS production”; in the data set with E. coli membranes (E. coli membranes), “did not exhibit significant CFZ-mediated NADH oxidation or ROS production”; in data set [9] (S. cerevisiae submitochondrial particles), “able to oxidize NADH and generate ROS”. Further, the “inhibitory effect of high levels on mediated NADH oxidation” value in the data set with S. aureus membranes (S. aureus membranes) is “inhibitory”. Besides, in [4] (buffered Triton X-100 detergent solution), the pKa stood at 6.8. In addition, the “increase of rate of ROS production over background” value in the data set on M. smegmatis membranes [5] (log-phase membranes, NADH, 0.5 μg CFZ) was 11.5 fold. Also, the “ROS (resorufin) production rate relative to rate of NADH consumption / electron transport chain” value in the data set with M. smegmatis membranes [5] (maximum, 0.1-0.2 μg CFZ/μg membrane protein, no KCN) was around 18%. Besides, in the data set on M. smegmatis membranes [5] (succinate as electron donor), the “CFZ reduction and ROS production with succinate instead of NADH” value was “neither CFZ reduction nor ROS production was observed”. Besides, in the data set on M. smegmatis membranes [7], the “CFZ-mediated NADH oxidase rate relative to rate in absence of KCN” value is listed as 25-70%. In addition, the “fraction of NADH oxidase activity restored (maximum)” value with M. smegmatis membranes [7] was 0.25 and 0.40-0.70. Moreover, the “ROS generation with purified NDH-2 and NADH” value in data set [8] is “generation of ROS”. Besides, in data set [8] (pH 6.5), the “reduction by purified NDH-2” value is given as “purified NDH-2 reduces CFZ”. Besides, in the data set with M. smegmatis membranes [10] (0.5% SDS (final) added), the “observed first order rate constant of reoxidation of reduced CFZ” value came to 1.40 ± 0.01 min⁻¹. Also, the “reduction on NADH addition with membranes” value in the data set on M. smegmatis membranes [10] (M. smegmatis membranes, NADH) is “marked loss of CFZ absorbance”. Further, the “observed first (pseudo) order rate constant of reoxidation of reduced CFZ” value in the data set with M. smegmatis membranes [10] (after agitation, no SDS) came out at 1.25 ± 0.01 min⁻¹. The “second order rate constant for reoxidation of reduced CFZ by O2” value in the data set with M. smegmatis membranes [10] (assuming 250 μM O2) was ~100 M⁻¹ s⁻¹ and 83 M⁻¹ s⁻¹.

As to `CN(C)CCCN1c2ccccc2Sc2ccc(Cl)cc21` [CPZ, chlorpromazin], in data set [11] (400 μM CPZ, 0.2 mM NADH, 2 mM Q0), the “effect on NADH-Q0 reductase activity (NADH oxidation)” value is reported as “completely ceased”. Besides, in data set [11] (E. faecalis membranes), the “inhibition of KS6-mediated ROS production” value was “complete inhibition”.

For `NNC(=O)c1ccncc1` [INH, isoniazid], in the data set with M. smegmatis mc2 155, the “effect of antioxidants (α-tocopherol, 4-hydroxy-TEMPO, N-acetylcysteine) on growth inhibition” value is reported as “not altered; also recorded: not sensitive to antioxidants”. The “M. smegmatis growth” value with M. smegmatis mc2 155 (10 μg/ml) is given as “completely inhibited”.

Take `CN1CCN(CCCN2c3ccccc3Sc3ccc(C(F)(F)F)cc32)CC1` [TPZ, trifluoperazine]: the “effect on CFZ-mediated ROS production” value with M. smegmatis membranes [5] (TPZ 0.2 mM) is “sensitive to TPZ”. Moreover, in the data set on M. smegmatis membranes [7], the “inhibition of NADH oxidase activity” value is recorded as “inhibited CFZ-mediated NADH oxidase activity”. In addition, the “effect on ROS formation by purified NDH-2 with CFZ” value in data set [8] was “inhibited”.

Source of the values: US9540336B2, “Therapeutic agents” (priority 2011, dated 2017).
